Data from patent US10231954B2, “Neurodegenerative therapies” (LYTIX BIOPHARMA AS, priority 2014, dated 2019).

How the values were obtained:
Type in all cases: biochemical
ULK2 = target: T1, ULK2 (Homo sapiens, UniProt Q8IYT8); assay: Kinase profiling ULK2; conditions: 100 micromolar inhibitor concentration, 100 is no change; for remaining activity at 100 µM: read-out: residual kinase activity, ULK2
T1 sequence (Q8IYT8 1-1036): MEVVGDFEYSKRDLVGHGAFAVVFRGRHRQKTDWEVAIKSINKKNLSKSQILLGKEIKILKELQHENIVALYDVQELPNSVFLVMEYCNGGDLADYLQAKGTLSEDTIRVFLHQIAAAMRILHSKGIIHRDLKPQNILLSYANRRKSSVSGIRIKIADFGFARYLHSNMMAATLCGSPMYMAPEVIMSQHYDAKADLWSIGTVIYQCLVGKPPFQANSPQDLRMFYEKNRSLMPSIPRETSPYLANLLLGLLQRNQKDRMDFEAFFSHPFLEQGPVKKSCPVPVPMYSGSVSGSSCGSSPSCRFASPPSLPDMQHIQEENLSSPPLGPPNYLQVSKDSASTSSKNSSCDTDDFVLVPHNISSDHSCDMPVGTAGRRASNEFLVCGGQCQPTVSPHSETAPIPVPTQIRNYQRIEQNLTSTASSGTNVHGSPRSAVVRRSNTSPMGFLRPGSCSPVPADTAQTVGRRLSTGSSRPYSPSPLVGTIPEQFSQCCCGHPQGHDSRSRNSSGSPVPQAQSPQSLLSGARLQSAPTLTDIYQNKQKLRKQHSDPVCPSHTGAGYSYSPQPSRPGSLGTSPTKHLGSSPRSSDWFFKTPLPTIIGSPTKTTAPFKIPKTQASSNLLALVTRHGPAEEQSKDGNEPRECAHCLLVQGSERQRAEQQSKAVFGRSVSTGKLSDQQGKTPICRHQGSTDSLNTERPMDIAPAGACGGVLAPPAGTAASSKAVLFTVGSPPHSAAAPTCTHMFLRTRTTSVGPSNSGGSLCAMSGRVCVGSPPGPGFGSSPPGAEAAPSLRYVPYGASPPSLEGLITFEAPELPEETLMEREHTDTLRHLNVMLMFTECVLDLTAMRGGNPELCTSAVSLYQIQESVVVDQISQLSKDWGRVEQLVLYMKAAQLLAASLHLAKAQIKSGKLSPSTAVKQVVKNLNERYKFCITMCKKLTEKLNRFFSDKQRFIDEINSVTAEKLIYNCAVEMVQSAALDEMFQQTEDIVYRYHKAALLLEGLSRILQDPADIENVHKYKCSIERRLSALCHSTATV
Excerpt: (§1) Any value less that 25 is considered to be highly significant inhibition.

EPH-B2 = target: T2, EPH-B2 (Homo sapiens, UniProt P29323); assay: Kinase profiling EPH-B2; conditions: 100 micromolar inhibitor concentration, 100 is no change; for remaining activity at 100 µM: read-out: residual kinase activity, EPH-B2
T2 sequence (P29323 19-1055): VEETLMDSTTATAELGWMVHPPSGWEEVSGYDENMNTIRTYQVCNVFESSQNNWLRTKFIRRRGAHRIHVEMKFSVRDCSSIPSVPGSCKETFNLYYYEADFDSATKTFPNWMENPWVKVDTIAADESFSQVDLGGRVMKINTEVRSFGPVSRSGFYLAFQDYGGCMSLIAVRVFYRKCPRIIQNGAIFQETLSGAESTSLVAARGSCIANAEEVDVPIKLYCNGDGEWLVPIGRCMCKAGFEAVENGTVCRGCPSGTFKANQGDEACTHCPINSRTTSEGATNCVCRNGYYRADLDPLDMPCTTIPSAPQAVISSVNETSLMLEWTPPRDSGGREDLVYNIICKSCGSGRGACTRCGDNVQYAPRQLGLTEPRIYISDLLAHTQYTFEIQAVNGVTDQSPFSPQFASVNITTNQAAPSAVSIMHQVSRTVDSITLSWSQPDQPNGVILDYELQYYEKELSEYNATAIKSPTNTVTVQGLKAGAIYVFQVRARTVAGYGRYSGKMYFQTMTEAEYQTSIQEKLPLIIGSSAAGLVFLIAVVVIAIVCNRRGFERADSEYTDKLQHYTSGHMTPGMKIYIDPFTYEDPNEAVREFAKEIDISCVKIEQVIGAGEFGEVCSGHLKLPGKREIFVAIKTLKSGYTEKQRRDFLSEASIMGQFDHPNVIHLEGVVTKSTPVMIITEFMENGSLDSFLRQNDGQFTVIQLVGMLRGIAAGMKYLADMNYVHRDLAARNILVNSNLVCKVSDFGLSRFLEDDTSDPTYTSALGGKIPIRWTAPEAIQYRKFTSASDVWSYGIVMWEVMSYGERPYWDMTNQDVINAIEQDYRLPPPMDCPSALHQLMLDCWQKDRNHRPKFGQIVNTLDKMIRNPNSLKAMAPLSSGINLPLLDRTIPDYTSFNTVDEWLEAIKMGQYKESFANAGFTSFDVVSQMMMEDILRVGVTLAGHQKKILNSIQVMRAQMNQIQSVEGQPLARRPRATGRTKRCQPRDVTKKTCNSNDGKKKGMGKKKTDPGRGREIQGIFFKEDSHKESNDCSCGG
Excerpt: as §1

MLK1 = MLK1 (Homo sapiens, UniProt P80192); assay: Kinase profiling MLK1; conditions: 100 micromolar inhibitor concentration, 100 is no change; for remaining activity at 100 µM: read-out: residual kinase activity, MLK1
Excerpt: as §1

AMPK = assay: Kinase profiling AMPK; conditions: 100 micromolar inhibitor concentration; 100 is no change
Excerpt: as §1

MNK1 = MNK1 (Homo sapiens, UniProt Q9BUB5); assay: Kinase profiling MNK1; conditions: 100 micromolar inhibitor concentration, 100 is no change; for remaining activity at 100 µM: read-out: residual kinase activity, MNK1
Excerpt: as §1

MARK1 = MARK1 (Homo sapiens, UniProt Q9P0L2); assay: Kinase profiling MARK1; conditions: 100 micromolar inhibitor concentration, 100 is no change; for remaining activity at 100 µM: read-out: residual kinase activity, MARK1
Excerpt: as §1

PDGFRA = PDGFRA (Homo sapiens, UniProt P16234); assay: Kinase profiling PDGFRA; conditions: 100 micromolar inhibitor concentration, 100 is no change; for remaining activity at 100 µM: read-out: residual kinase activity, PDGFRA
Excerpt: as §1

TTBK1 = TTBK1 (Homo sapiens, UniProt Q5TCY1); assay: Kinase profiling TTBK1; conditions: 100 micromolar inhibitor concentration, 100 is no change; for remaining activity at 100 µM: read-out: residual kinase activity, TTBK1
Excerpt: as §1

ABL = ABL (Homo sapiens, UniProt P00519); assay: Kinase profiling ABL; conditions: 100 micromolar inhibitor concentration, 100 is no change; for remaining activity at 100 µM: read-out: residual kinase activity, ABL
Excerpt: as §1

Sequence of MNK1 (Q9BUB5 whole entry, species assumed): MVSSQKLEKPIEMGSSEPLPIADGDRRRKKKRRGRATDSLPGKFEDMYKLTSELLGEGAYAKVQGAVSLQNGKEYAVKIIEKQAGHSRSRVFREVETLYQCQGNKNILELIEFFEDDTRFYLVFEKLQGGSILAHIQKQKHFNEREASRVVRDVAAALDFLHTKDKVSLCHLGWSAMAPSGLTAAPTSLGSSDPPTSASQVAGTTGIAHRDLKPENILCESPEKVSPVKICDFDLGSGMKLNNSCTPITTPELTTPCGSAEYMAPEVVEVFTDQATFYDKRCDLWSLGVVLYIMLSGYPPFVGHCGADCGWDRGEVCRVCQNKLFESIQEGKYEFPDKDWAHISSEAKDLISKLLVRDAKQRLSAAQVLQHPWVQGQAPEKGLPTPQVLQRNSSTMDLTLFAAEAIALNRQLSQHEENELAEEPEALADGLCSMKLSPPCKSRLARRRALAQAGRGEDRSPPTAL
Sequence of TTBK1 (Q5TCY1 whole entry, species assumed): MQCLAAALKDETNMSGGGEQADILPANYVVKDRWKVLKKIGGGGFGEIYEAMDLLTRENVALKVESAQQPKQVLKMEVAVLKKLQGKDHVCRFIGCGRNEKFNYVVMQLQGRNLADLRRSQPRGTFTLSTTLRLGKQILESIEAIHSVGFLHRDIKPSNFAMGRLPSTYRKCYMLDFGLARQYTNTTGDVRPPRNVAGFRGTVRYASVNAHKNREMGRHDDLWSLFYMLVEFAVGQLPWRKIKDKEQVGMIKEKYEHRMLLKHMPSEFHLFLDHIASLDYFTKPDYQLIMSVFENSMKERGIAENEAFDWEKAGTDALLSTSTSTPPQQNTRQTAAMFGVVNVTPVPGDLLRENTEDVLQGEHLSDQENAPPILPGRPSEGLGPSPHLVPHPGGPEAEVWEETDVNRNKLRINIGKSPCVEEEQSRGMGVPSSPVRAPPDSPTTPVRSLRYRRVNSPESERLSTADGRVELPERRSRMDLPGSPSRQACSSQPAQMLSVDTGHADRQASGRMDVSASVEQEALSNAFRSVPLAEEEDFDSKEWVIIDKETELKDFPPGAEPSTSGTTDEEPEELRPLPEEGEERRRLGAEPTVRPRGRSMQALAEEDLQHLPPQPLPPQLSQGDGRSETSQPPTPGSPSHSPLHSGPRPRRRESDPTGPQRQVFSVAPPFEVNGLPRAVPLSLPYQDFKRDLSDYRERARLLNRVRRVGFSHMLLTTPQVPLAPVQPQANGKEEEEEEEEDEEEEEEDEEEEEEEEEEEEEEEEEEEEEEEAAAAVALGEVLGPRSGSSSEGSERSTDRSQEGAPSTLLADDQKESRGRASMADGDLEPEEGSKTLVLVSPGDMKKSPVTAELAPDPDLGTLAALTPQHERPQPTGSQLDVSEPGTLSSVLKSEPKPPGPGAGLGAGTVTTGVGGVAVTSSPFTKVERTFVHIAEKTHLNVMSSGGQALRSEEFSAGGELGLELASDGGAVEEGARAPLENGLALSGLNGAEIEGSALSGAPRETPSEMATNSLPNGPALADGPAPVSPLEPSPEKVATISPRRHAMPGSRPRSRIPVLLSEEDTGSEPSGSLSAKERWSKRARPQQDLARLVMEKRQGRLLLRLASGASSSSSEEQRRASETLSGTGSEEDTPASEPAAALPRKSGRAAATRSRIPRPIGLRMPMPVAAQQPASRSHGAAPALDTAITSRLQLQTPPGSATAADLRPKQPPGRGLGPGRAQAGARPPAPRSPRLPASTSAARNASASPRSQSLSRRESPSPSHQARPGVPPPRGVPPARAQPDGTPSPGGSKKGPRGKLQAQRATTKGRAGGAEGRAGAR
Sequence of ABL (P00519 whole entry, species assumed): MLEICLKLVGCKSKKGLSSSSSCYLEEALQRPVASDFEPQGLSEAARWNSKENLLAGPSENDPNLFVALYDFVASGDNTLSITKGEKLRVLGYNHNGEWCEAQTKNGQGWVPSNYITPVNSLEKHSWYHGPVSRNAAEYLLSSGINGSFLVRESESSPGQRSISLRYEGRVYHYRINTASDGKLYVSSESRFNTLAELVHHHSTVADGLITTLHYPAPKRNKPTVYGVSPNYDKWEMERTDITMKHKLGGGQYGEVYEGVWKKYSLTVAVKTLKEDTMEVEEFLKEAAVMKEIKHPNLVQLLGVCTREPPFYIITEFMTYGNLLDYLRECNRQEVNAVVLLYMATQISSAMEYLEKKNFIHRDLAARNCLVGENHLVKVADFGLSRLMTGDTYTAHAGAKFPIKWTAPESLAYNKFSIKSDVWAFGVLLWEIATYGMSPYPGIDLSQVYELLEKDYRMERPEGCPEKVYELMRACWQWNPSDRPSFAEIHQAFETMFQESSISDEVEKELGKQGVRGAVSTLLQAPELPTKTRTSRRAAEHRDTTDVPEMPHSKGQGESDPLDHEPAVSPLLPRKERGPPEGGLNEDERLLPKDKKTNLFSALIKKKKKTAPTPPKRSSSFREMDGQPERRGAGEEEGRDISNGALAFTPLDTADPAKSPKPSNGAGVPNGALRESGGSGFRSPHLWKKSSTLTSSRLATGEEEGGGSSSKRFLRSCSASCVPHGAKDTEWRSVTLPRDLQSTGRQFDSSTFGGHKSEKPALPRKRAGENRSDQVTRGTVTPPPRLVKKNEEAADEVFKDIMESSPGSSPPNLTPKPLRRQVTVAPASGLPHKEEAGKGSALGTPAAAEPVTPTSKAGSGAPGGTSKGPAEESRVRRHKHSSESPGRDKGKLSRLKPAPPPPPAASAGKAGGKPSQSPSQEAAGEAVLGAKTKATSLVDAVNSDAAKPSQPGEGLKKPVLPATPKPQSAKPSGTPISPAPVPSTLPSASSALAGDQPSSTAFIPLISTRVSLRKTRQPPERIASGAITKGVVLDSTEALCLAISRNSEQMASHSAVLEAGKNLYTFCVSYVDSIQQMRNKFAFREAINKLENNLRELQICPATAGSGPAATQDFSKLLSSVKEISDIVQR
Sequence of MLK1 (P80192 whole entry, species assumed): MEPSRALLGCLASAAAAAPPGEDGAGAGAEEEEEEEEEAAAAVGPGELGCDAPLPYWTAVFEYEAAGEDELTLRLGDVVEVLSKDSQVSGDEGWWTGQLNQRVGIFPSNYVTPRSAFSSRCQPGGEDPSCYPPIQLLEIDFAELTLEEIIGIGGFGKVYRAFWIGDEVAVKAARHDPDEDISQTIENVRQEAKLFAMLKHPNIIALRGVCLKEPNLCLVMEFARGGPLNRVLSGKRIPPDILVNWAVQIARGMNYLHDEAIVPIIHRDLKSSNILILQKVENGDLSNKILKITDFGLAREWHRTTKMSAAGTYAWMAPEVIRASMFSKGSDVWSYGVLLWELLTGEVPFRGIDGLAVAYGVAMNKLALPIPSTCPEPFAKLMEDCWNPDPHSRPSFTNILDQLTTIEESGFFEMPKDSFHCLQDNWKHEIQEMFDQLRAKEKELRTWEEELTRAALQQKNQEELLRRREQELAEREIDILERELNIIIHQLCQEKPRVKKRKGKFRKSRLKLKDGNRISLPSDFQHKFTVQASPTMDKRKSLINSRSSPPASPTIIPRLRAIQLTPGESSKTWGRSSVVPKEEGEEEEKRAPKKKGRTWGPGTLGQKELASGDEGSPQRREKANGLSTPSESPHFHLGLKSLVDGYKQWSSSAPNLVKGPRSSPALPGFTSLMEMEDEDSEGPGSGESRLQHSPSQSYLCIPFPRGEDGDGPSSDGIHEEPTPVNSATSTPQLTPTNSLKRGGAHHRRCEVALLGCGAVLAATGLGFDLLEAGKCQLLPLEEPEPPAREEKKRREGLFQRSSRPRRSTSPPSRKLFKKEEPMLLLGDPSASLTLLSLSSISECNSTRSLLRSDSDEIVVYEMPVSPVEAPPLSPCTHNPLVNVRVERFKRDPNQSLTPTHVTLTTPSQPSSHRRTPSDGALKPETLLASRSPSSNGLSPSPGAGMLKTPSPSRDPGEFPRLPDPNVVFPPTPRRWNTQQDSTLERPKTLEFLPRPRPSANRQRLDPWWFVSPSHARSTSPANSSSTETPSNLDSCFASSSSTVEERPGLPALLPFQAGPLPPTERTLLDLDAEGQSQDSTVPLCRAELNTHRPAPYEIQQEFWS
Sequence of MARK1 (Q9P0L2 whole entry, species assumed): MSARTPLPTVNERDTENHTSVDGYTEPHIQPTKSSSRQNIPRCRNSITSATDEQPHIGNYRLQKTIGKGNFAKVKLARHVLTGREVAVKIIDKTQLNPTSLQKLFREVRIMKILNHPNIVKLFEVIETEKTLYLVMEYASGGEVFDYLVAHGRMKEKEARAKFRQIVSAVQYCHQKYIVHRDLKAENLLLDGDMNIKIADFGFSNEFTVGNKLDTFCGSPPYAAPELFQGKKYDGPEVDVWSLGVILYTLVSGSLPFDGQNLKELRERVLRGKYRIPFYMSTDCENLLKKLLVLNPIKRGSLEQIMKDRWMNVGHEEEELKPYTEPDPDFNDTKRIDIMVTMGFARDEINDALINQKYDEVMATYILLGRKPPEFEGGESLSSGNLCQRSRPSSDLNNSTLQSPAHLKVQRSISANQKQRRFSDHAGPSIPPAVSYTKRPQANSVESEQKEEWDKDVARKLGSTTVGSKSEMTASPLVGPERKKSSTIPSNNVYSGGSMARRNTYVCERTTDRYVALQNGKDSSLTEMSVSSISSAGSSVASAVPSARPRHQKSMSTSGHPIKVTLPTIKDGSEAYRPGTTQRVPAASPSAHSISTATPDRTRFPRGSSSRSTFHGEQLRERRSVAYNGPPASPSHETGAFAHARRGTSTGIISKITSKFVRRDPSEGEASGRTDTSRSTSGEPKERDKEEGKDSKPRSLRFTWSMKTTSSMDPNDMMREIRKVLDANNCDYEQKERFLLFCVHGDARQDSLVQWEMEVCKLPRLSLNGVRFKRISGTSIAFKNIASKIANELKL

Compound	remaining activity at 100 µM (ULK2) [%]	remaining activity at 100 µM (EPH-B2) [%]	remaining activity at 100 µM (MLK1) [%]	residual kinase activity, AMPK (AMPK)	remaining activity at 100 µM (MNK1) [%]	remaining activity at 100 µM (MARK1) [%]	remaining activity at 100 µM (PDGFRA) [%]	remaining activity at 100 µM (TTBK1) [%]	remaining activity at 100 µM (ABL) [%]	residual kinase activity, ULK2 (ULK2)	residual kinase activity, EPH-B2 (EPH-B2)	residual kinase activity, MLK1 (MLK1)	residual kinase activity, MNK1 (MNK1)	residual kinase activity, MARK1 (MARK1)	residual kinase activity, PDGFRA (PDGFRA)	residual kinase activity, TTBK1 (TTBK1)	residual kinase activity, ABL (ABL)
CC(=O)Nc1nc2cc(C(F)(F)F)ccc2s1 [Compound 03-73]	88	98	75	75	89	88	34	94	109								
CC(=O)Nc1nc2cc(F)ccc2s1 [Compound 03-77]	83	114	58	73	64	80	59	80	86								
CC(=O)Nc1nc2ccc(C(F)(F)F)cc2s1 [Compound 01-90]	78	38	39	90	65	90	30	88	31								
O=C(Nc1nc2ccc(O)cc2s1)c1cccnc1 [Compound 08-44]				48						84	91	13	19	83	44	47	58
